Measured values: PubChem BioAssay AID182 (DTP/NCI, 2004)
Where “and” joins values, the source holds several entries; their conditions need not be identical. Identical values can stand only once. Inconclusive results and toxic doses are left out. Rule for the calls: active = survival T/C of 150% or more; inactive = T/C below 125% in these data.

Tested on: BDF1 mice, P388/ADR leukemia ip, median survival T/C
Assay: NCI In Vivo Anticancer Drug Screen. Data for tumor model P388 Leukemia resistant to Adriamycin; NSC 123127, Developed at Scr 06 and 41 (intraperitoneal) in B6D2F1 (BDF1) mice
Conditions: endpoint: median survival time, higher = longer survival
Method: The antitumor activity of compounds was measured in mice bearing transplantable tumors. Survival or tumor size were measured and the results are expressed as the measurement made in the treated group (T) divided by the measurement made in the vehicle treated control group (C). The tumor model used in this assay is P388 Leukemia resistant to Adriamycin; NSC 123127, Developed at Scr 06 and 41 (intraperitoneal) in B6D2F1 (BDF1) mice

Measured: T/C

COc1cccc2c1C(=O)c1c(O)c3c(c(O)c1C2=O)C[C@@](O)(C(=O)CO)C[C@@H]3OC1CC(N)C(O)C(C)O1 (some centres not stated)
inactive: dose: 0.65 mg/kg/injection, schedule: Q01DX009 (ip), vehicle: saline 107 % of control | dose: 1.08 mg/kg/injection, schedule: Q01DX009 (ip), vehicle: saline 109 % of control | dose: 1.3 mg/kg/injection, schedule: Q04DX003 (ip), vehicle: saline 112 % of control | dose: 1.3 mg/kg/injection, schedule: Q04DX003 (ip), vehicle: water 102 % of control and 115 % of control | dose: 1.5 mg/kg/injection, schedule: Q04DX003 (ip), vehicle: water 100 % of control | dose: 1.73 mg/kg/injection, schedule: Q04DX003 (ip), vehicle: water 116 % of control | dose: 1.8 mg/kg/injection, schedule: Q01DX009 (ip), vehicle: saline 110 % of control | dose: 2.16 mg/kg/injection, schedule: Q04DX003 (ip), vehicle: saline 109 % of control | dose: 2.16 mg/kg/injection, schedule: Q04DX003 (ip), vehicle: water 99 % of control and 120 % of control and 102 % of control | dose: 2.88 mg/kg/injection, schedule: Q04DX003 (ip), vehicle: water 124 % of control | dose: 3.0 mg/kg/injection, schedule: Q01DX009 (ip), vehicle: saline 96 % of control | dose: 3.0 mg/kg/injection, schedule: Q04DX003 (ip), vehicle: water 100 % of control | dose: 3.6 mg/kg/injection, schedule: Q04DX003 (ip), vehicle: saline 120 % of control | dose: 3.6 mg/kg/injection, schedule: Q04DX003 (ip), vehicle: water 115 % of control and 122 % of control and 100 % of control | dose: 4.8 mg/kg/injection, schedule: Q04DX003 (ip), vehicle: water 103 % of control | dose: 6.0 mg/kg/injection, schedule: Q04DX003 (ip), vehicle: water 99 % of control [middle of 4 runs] | dose: 10.0 mg/kg/injection, schedule: Q04DX003 (ip), vehicle: water 98 % of control | dose: 66.7 mg/kg/injection, schedule: Q04DX003 (ip), vehicle: water 96 % of control

CC(=O)c1cccc(NC2C(N)C(NC(=O)N(C)C)(C(C)O)C(C)(O)C2(O)COC(=O)c2c(C)cccc2O)c1 (configuration not stated)
inactive: dose: 5.18 mg/kg/injection, schedule: Q04DX003 (ip), vehicle: alkali diluted with saline 90 % of control | dose: 6.5 mg/kg/injection, schedule: Q04DX003 (ip), vehicle: alkali diluted with saline 114 % of control | dose: 8.64 mg/kg/injection, schedule: Q04DX003 (ip), vehicle: alkali diluted with saline 89 % of control | dose: 14.4 mg/kg/injection, schedule: Q04DX003 (ip), vehicle: alkali diluted with saline 87 % of control
